Earlier results, collected in paper PMC7473964, “Application of Pharmacokinetic-Pharmacodynamic Modeling to Inform Translation of In Vitro NaV1.7 Inhibition to In Vivo Pharmacological Response in Non-human Primate” (Pharmaceutical Research, 2020).

System: sense of smell (hyposmia) as biomarker of on-target NaV1.7 pharmacology
Design: method as in PMID 31172446
Details: healthy volunteers, first-in-human study

Compound: O=C(NS(=O)(=O)N1CCC1)c1cc(C2CC2)c(OCC23CC4CC(CC(C4)C2)C3)cc1F [GDC-0276]
- Hyposmia in clinical study: a couple of incidents of hyposmia were reported
